Test results from patent publication US10131744B2, “Antimicrobial polyamide compositions and mastitis treatment” (priority 2013, dated 2018).
≈ marks a conversion by molar mass, not a printed value. Read-outs that look alike come from different tables or passages of the source.

Key:
[1] = system: Staphylococcus aureus (including MRSA); assay: MIC in broth against Staphylococcus aureus (including MRSA); type: cell-based; design: MIC against Staphylococcus aureus including MRSA: unit: μg/mL
Procedure: (§1) The antimicrobial efficacy of twenty-five antimicrobial polymers (and Erythromycin) was evaluated using an MIC assay. For each study, a doubling dilution concentration of each antimicrobial polymer was prepared at 2× the final concentration range (0.12 to 16 μg/mL), and 100 μL of the API-null formulation was dispensed into the negative control wells. Overall, the antimicrobial polymer-containing compositions performed comparably well, or better, against the pathogens, as compared to Erythromycin (ERY).

Mycoplasma bovis = assay: organism not typed; type: cell-based
[2] = system: Actinobacillus pleuropneumoniae; assay: MIC in broth against Actinobacillus pleuropneumoniae; type: cell-based
Procedure: as §1

Histophilus somni = assay: MIC in broth against Histophilus somni; type: cell-based
Procedure: as §1

Enterobacter species = assay: MIC in broth against Enterobacter species; type: cell-based
Procedure: as §1

Mannheimia haemolytica = assay: MIC in broth against Mannheimia haemolytica; type: cell-based
Procedure: as §1

Moraxella bovis = assay: MIC in broth against Moraxella bovis; type: cell-based
Procedure: as §1

Proteus mirabilis = assay: MIC in broth against Proteus mirabilis; type: cell-based
Procedure: as §1

Pseudomonas aeruginosa = assay: MIC in broth against Pseudomonas aeruginosa; type: cell-based; design: unit not given beside the values
Procedure: as §1

Streptococcus agalactiae = assay: MIC in broth against Streptococcus agalactiae; type: cell-based; design: unit not given beside the values
Procedure: as §1

Serratia marcescens = assay: MIC in broth against Serratia marcescens; type: cell-based; design: unit not given beside the values
Procedure: as §1

[3] = system: Streptococcus dysgalactiae; assay: MIC in broth against Streptococcus dysgalactiae; type: cell-based
Procedure: as §1

[4] = system: Staphylococcus aureus (including MRSA); conditions: S. aureus (Sta-3) ATCC 29213; cited from earlier work
[5] = system: E. faecalis (Str-15) ATCC 29212; conditions: cited from earlier work

CC[C@H]1OC(=O)[C@H](C)[C@@H](O[C@H]2C[C@@](C)(OC)[C@@H](O)[C@H](C)O2)[C@H](C)[C@@H](O[C@@H]2O[C@H](C)C[C@H](N(C)C)[C@H]2O)[C@](C)(O)C[C@@H](C)C(=O)[C@H](C)[C@@H](O)[C@]1(C)O [Ery, Erythromycin]
MIC ([1]; Staphylococcus aureus, ATCC 29213 / MRSA, S. aureus (Sta-3) ATCC 29213): 0.5 µg/mL (≈ 0.681 µM) | MIC against Staphylococcus aureus including MRSA ([1]; strain # 98): 0.25 | MIC against Staphylococcus aureus including MRSA ([1]; strain # 99): 0.25 | MIC against Staphylococcus aureus including MRSA ([1]; strain # 100): 0.25 | MIC against Staphylococcus aureus including MRSA ([1]; strain # 101): 0.25 | MIC against Staphylococcus aureus including MRSA ([1]; strain # 102): 0.25 | MIC against Staphylococcus aureus including MRSA ([1]; strain # 103): 0.25 | MIC against Staphylococcus aureus including MRSA ([1]; strain # 104): 0.25 | MIC against Staphylococcus aureus including MRSA ([1]; strain # 105): 0.25 | MIC against Staphylococcus aureus including MRSA ([1]; strain # 106): 0.25 | MIC against Staphylococcus aureus including MRSA ([1]; strain # 107): 0.25 | MIC against Staphylococcus aureus including MRSA ([1]; strain # 108): >8 | MIC against Staphylococcus aureus including MRSA ([1]; strain # 109): 1 | MIC against Staphylococcus aureus including MRSA ([1]; strain # 110): >8 | MIC against Staphylococcus aureus including MRSA ([1]; strain # 111): >8 | MIC against Staphylococcus aureus including MRSA ([1]; strain # 112): 0.5 | MIC against Staphylococcus aureus including MRSA ([1]; strain # 113): >8 | MIC against Staphylococcus aureus including MRSA ([1]; strain # 114): >8 | MIC against Staphylococcus aureus including MRSA ([1]; strain # 115): >8 | MIC against Staphylococcus aureus including MRSA ([1]; strain # 116): >8 | MIC against Staphylococcus aureus including MRSA ([1]; strain # 117): >8 | MIC against Staphylococcus aureus including MRSA ([1]; strain # 118): >8 | MIC against Staphylococcus aureus including MRSA ([1]; strain # 119): >8 | MIC against Staphylococcus aureus including MRSA ([1]; strain # 120): >8 | MIC against Staphylococcus aureus including MRSA ([1]; strain # 121): >8 | MIC against Staphylococcus aureus including MRSA ([1]; strain # 122): >8 | MIC against Staphylococcus aureus including MRSA ([1]; strain # 123): >8 | MIC against Staphylococcus aureus including MRSA ([1]; strain # 124): >8 | MIC against Staphylococcus aureus including MRSA ([1]; strain # 125): >8 | MIC against Staphylococcus aureus including MRSA ([1]; strain # 126): >8 | MIC against Staphylococcus aureus including MRSA ([1]; strain # 127): >8 | MIC (Mycoplasma bovis): 4 µg/mL (≈ 5.45 µM) | MIC (Mycoplasma bovis; Mycoplasmopsis bovis, isolate # 248 (mastitis), read-out: MIC against Mycoplasma bovis): > 8 µg/mL | MIC (Mycoplasma bovis; Mycoplasmopsis bovis, isolate # 249 (mastitis), read-out: MIC against Mycoplasma bovis): > 8 µg/mL | MIC (Mycoplasma bovis; Mycoplasmopsis bovis, isolate # 250 (mastitis), read-out: MIC against Mycoplasma bovis): > 8 µg/mL | MIC (Mycoplasma bovis; Mycoplasmopsis bovis, isolate # 251 (mastitis), read-out: MIC against Mycoplasma bovis): > 8 µg/mL | MIC (Mycoplasma bovis; Mycoplasmopsis bovis, isolate # 252 (mastitis), read-out: MIC against Mycoplasma bovis): > 8 µg/mL | MIC (Mycoplasma bovis; Mycoplasmopsis bovis, isolate # 253 (mastitis), read-out: MIC against Mycoplasma bovis): 4 µg/mL (≈ 5.45 µM) | MIC (Mycoplasma bovis; Mycoplasmopsis bovis, isolate # 254 (mastitis), read-out: MIC against Mycoplasma bovis): > 8 µg/mL | MIC (Mycoplasma bovis; Mycoplasmopsis bovis, isolate # 255 (mastitis), read-out: MIC against Mycoplasma bovis): > 8 µg/mL | MIC (Mycoplasma bovis; Mycoplasmopsis bovis, isolate # 256 (mastitis), read-out: MIC against Mycoplasma bovis): > 8 µg/mL | MIC (Mycoplasma bovis; Mycoplasmopsis bovis, isolate # 257 (mastitis), read-out: MIC against Mycoplasma bovis): > 8 µg/mL | MIC ([2]; A. pleuro. (AC-1) ATTC 27090, read-out: MIC): 8 µg/mL (≈ 10.9 µM) | MIC ([2]; isolate # 237 (porcine lung, SRD), read-out: MIC against Actinobacillus pleuropneumoniae): 2 µg/mL (≈ 2.73 µM) | MIC ([2]; isolates # 228-231, 235 (porcine lung, SRD), read-out: MIC against Actinobacillus pleuropneumoniae): 4 µg/mL (≈ 5.45 µM) | MIC ([2]; isolates # 232-236 (porcine lung, SRD), read-out: MIC against Actinobacillus pleuropneumoniae): 8 µg/mL (≈ 10.9 µM) | MIC (Histophilus somni; H. somni (H-15) ATTC 700025, read-out: MIC): 1 µg/mL (≈ 1.36 µM) | MIC (Histophilus somni; isolates # 238-240, 243, 246 (BRD), read-out: MIC against Histophilus somni): > 8 µg/mL | MIC (Histophilus somni; isolates # 241, 247 (BRD), read-out: MIC against Histophilus somni): 0.5 µg/mL (≈ 0.681 µM) | MIC (Histophilus somni; isolates # 242, 244, 245 (BRD), read-out: MIC against Histophilus somni): 1 µg/mL (≈ 1.36 µM) | MIC (Enterobacter species; Enterobacter, isolate # 26 (mastitis)): > 8 µg/mL | MIC against Enterobacter species (Enterobacter species; isolate # 21 (mastitis)): >8 µg/mL | MIC against Enterobacter species (Enterobacter species; isolate # 22 (mastitis)): >8 µg/mL | MIC against Enterobacter species (Enterobacter species; isolate # 23 (mastitis)): >8 µg/mL | MIC against Enterobacter species (Enterobacter species; isolate # 24 (mastitis)): >8 µg/mL | MIC against Enterobacter species (Enterobacter species; isolate # 25 (mastitis)): >8 µg/mL | MIC against Enterobacter species (Enterobacter species; isolate # 27 (mastitis)): >8 µg/mL | MIC (Mannheimia haemolytica; isolate # 158): 4 µg/mL (≈ 5.45 µM) | MIC (Mannheimia haemolytica; isolate # 159): > 8 µg/mL | MIC (Mannheimia haemolytica; isolate # 160): 4 µg/mL (≈ 5.45 µM) | MIC (Mannheimia haemolytica; isolate # 161): > 8 µg/mL | MIC (Mannheimia haemolytica; isolate # 162): 2 µg/mL (≈ 2.73 µM) | MIC (Mannheimia haemolytica; isolate # 163): 4 µg/mL (≈ 5.45 µM) | MIC (Mannheimia haemolytica; isolate # 164): > 8 µg/mL | MIC (Mannheimia haemolytica; isolate # 165): > 8 µg/mL | MIC (Mannheimia haemolytica; isolate # 166): 1 µg/mL (≈ 1.36 µM) | MIC (Mannheimia haemolytica; isolate # 167): 4 µg/mL (≈ 5.45 µM) | MIC (Moraxella bovis; isolate # 88): 0.3 µg/mL (≈ 0.409 µM) | MIC (Moraxella bovis; isolate # 89): 0.5 µg/mL (≈ 0.681 µM) | MIC (Moraxella bovis; isolate # 90): 0.5 µg/mL (≈ 0.681 µM) | MIC (Moraxella bovis; isolate # 91): 1 µg/mL (≈ 1.36 µM) | MIC (Moraxella bovis; isolate # 92): 0.5 µg/mL (≈ 0.681 µM) | MIC (Moraxella bovis; isolate # 93): 0.3 µg/mL (≈ 0.409 µM) | MIC (Moraxella bovis; isolate # 94): 0.5 µg/mL (≈ 0.681 µM) | MIC (Moraxella bovis; isolate # 95): 0.5 µg/mL (≈ 0.681 µM) | MIC (Moraxella bovis; isolate # 96): 0.5 µg/mL (≈ 0.681 µM) | MIC (Moraxella bovis; isolate # 97): 0.5 µg/mL (≈ 0.681 µM) | MIC (Proteus mirabilis; Proteus mirabilis, isolate # 52): > 8 µg/mL | MIC against Proteus mirabilis (Proteus mirabilis; isolate # 48): >8 µg/mL | MIC against Proteus mirabilis (Proteus mirabilis; isolate # 49): >8 µg/mL | MIC against Proteus mirabilis (Proteus mirabilis; isolate # 50): >8 µg/mL | MIC against Proteus mirabilis (Proteus mirabilis; isolate # 51): >8 µg/mL | MIC against Proteus mirabilis (Proteus mirabilis; isolate # 53): >8 µg/mL | MIC against Proteus mirabilis (Proteus mirabilis; isolate # 54): >8 µg/mL | MIC against Proteus mirabilis (Proteus mirabilis; isolate # 55): >8 µg/mL | MIC against Proteus mirabilis (Proteus mirabilis; isolate # 56): >8 µg/mL | MIC against Proteus mirabilis (Proteus mirabilis; isolate # 57): >8 µg/mL | MIC against Pseudomonas aeruginosa (Pseudomonas aeruginosa; strain # 58): >8 | MIC against Pseudomonas aeruginosa (Pseudomonas aeruginosa; strain # 59): >8 | MIC against Pseudomonas aeruginosa (Pseudomonas aeruginosa; strain # 60): >8 | MIC against Pseudomonas aeruginosa (Pseudomonas aeruginosa; strain # 61): >8 | MIC against Pseudomonas aeruginosa (Pseudomonas aeruginosa; strain # 62): >8 | MIC against Pseudomonas aeruginosa (Pseudomonas aeruginosa; strain # 63): >8 | MIC against Pseudomonas aeruginosa (Pseudomonas aeruginosa; strain # 64): >8 | MIC against Pseudomonas aeruginosa (Pseudomonas aeruginosa; strain # 65): >8 | MIC against Pseudomonas aeruginosa (Pseudomonas aeruginosa; strain # 66): >8 | MIC against Pseudomonas aeruginosa (Pseudomonas aeruginosa; strain # 67): >8 | MIC against Streptococcus agalactiae (Streptococcus agalactiae; isolate # 188): 0.03 | MIC against Streptococcus agalactiae (Streptococcus agalactiae; isolate # 189): 0.06 | MIC against Streptococcus agalactiae (Streptococcus agalactiae; isolate # 190): 0.03 | MIC against Streptococcus agalactiae (Streptococcus agalactiae; isolate # 191): 0.03 | MIC against Streptococcus agalactiae (Streptococcus agalactiae; isolate # 192): 0.06 | MIC against Streptococcus agalactiae (Streptococcus agalactiae; isolate # 193): 0.06 | MIC against Streptococcus agalactiae (Streptococcus agalactiae; isolate # 194): 0.03 | MIC against Streptococcus agalactiae (Streptococcus agalactiae; isolate # 195): 0.03 | MIC against Streptococcus agalactiae (Streptococcus agalactiae; isolate # 196): 0.03 | MIC against Streptococcus agalactiae (Streptococcus agalactiae; isolate # 197): 0.03 | MIC against Serratia marcescens (Serratia marcescens; isolate # 68): >8 | MIC against Serratia marcescens (Serratia marcescens; isolate # 69): >8 | MIC against Serratia marcescens (Serratia marcescens; isolate # 70): >8 | MIC against Serratia marcescens (Serratia marcescens; isolate # 71): >8 | MIC against Serratia marcescens (Serratia marcescens; isolate # 72): >8 | MIC against Serratia marcescens (Serratia marcescens; isolate # 73): >8 | MIC against Serratia marcescens (Serratia marcescens; isolate # 74): >8 | MIC against Serratia marcescens (Serratia marcescens; isolate # 75): >8 | MIC against Serratia marcescens (Serratia marcescens; isolate # 76): >8 | MIC against Serratia marcescens (Serratia marcescens; isolate # 77): >8 | MIC ([3]; isolate # 208): 0.06 µg/mL (≈ 0.0818 µM) | MIC ([3]; isolate # 209): 0.06 µg/mL (≈ 0.0818 µM) | MIC ([3]; isolate # 210): 0.12 µg/mL (≈ 0.164 µM) | MIC ([3]; isolate # 211): 0.06 µg/mL (≈ 0.0818 µM) | MIC ([3]; isolate # 212): 0.12 µg/mL (≈ 0.164 µM) | MIC ([3]; isolate # 213): 0.12 µg/mL (≈ 0.164 µM) | MIC ([3]; isolate # 214): 0.06 µg/mL (≈ 0.0818 µM) | MIC ([3]; isolate # 215): 0.12 µg/mL (≈ 0.164 µM) | MIC ([3]; isolate # 216): 0.06 µg/mL (≈ 0.0818 µM) | MIC ([3]; isolate # 217): 0.12 µg/mL (≈ 0.164 µM) | Known range (MIC) [4]: 0.25 to 1 µg/mL | Known range (MIC) [5]: 1 to 4 µg/mL
